In ChEMBL document CHEMBL1275576, “In vitro activity of tomopenem (CS-023/RO4908463) against anaerobic bacteria” (Antimicrob Agents Chemother, 2009):

What was measured:
Format in all cases: functional
Cutibacterium acnes = test: Antimicrobial activity against Propionibacterium acnes ATCC 11828 by agar dilution method in presence of 5% laked sheep blood
Fusobacterium nucleatum = test: Antimicrobial activity against Fusobacterium nucleatum ATCC 25586 by agar dilution method in presence of 5% laked sheep blood
Fusobacterium sp. = test: Antimicrobial activity against Fusobacterium sp. by agar dilution method in presence of 5% laked sheep blood
[1] = system: Desulfovibrio desulfuricans; test: Antimicrobial activity against Desulfovibrio desulfuricans by agar dilution method in presence of 5% laked sheep blood
Bacteroides ovatus = test: Antimicrobial activity against Bacteroides ovatus ATCC 8483 by agar dilution method in presence of 5% laked sheep blood
[2] = system: Peptoniphilus asaccharolyticus; test: Antimicrobial activity against Peptoniphilus asaccharolyticus by agar dilution method in presence of 5% laked sheep blood
Bacteroides stercoris = test: Antimicrobial activity against Bacteroides stercoris by agar dilution method in presence of 5% laked sheep blood
Clostridium perfringens [3] = test: Antimicrobial activity against Clostridium perfringens by agar dilution method in presence of 5% laked sheep blood
Bacteroides fragilis [4] = test: Antimicrobial activity against Bacteroides fragilis GAI 5562 by agar dilution method in presence of 5% laked sheep blood
Phocaeicola vulgatus = test: Antimicrobial activity against Bacteroides vulgatus by agar dilution method in presence of 5% laked sheep blood
Campylobacter gracilis = test: Antimicrobial activity against Campylobacter gracilis JCM 8538 by agar dilution method in presence of 5% laked sheep blood
Odoribacter splanchnicus = test: Antimicrobial activity against Odoribacter splanchnicus by agar dilution method in presence of 5% laked sheep blood
Eubacterium limosum = test: Antimicrobial activity against Eubacterium limosum by agar dilution method in presence of 5% laked sheep blood
Bacteroides uniformis [5] = test: Antimicrobial activity against Bacteroides uniformis ATCC 8492 by agar dilution method in presence of 5% laked sheep blood
[6] = system: Sutterella wadsworthensis; test: Antimicrobial activity against Sutterella wadsworthensis ATCC 51579 by agar dilution method in presence of 5% laked sheep blood
[7] = Antimicrobial activity against Parabacteroides distasonis ATCC 8503 by agar dilution method in presence of 5% laked sheep blood
Parvimonas micra = test: Antimicrobial activity against Parvimonas micra by agar dilution method in presence of 5% laked sheep blood
Bacteroides uniformis [8] = test: Antimicrobial activity against Bacteroides uniformis by agar dilution method in presence of 5% laked sheep blood
Clostridioides difficile [9] = test: Antimicrobial activity against Clostridium difficile GAI 10029 by agar dilution method in presence of 5% laked sheep blood
[10] = Antimicrobial activity against Veillonella dispar ATCC 17748 by agar dilution method in presence of 5% laked sheep blood
Eggerthella lenta [11] = test: Antimicrobial activity against Eggerthella lenta by agar dilution method in presence of 5% laked sheep blood
[12] = Antimicrobial activity against Bifidobacterium adolescentis ATCC 15703 by agar dilution method in presence of 5% laked sheep blood
[13] = system: Streptococcus constellatus; test: Antimicrobial activity against Streptococcus constellatus ATCC 27923 by agar dilution method in presence of 5% laked sheep blood
[14] = system: Parabacteroides distasonis; test: Antimicrobial activity against Parabacteroides distasonis by agar dilution method in presence of 5% laked sheep blood
Fusobacterium varium = test: Antimicrobial activity against Fusobacterium varium by agar dilution method in presence of 5% laked sheep blood
[15] = system: Prevotella melaninogenica; test: Antimicrobial activity against Prevotella melaninogenica JCM 6325 by agar dilution method in presence of 5% laked sheep blood; settings: ATCC 25845
Eggerthella lenta [16] = test: Antimicrobial activity against Eggerthella lenta ATCC 25559 by agar dilution method in presence of 5% laked sheep blood
Bacteroides fragilis [17] = test: Antimicrobial activity against Bacteroides fragilis GAI 10150 by agar dilution method in presence of 5% laked sheep blood
[18] = system: Lactiplantibacillus plantarum; test: Antimicrobial activity against Lactobacillus plantarum JCM 1149 by agar dilution method in presence of 5% laked sheep blood
Finegoldia magna = test: Antimicrobial activity against Finegoldia magna by agar dilution method in presence of 5% laked sheep blood
Bacteroides caccae = test: Antimicrobial activity against Bacteroides caccae by agar dilution method in presence of 5% laked sheep blood
[19] = system: Fusobacterium necrophorum; test: Antimicrobial activity against Fusobacterium necrophorum ATCC 25286 by agar dilution method in presence of 5% laked sheep blood
Prevotella denticola = test: Antimicrobial activity against Prevotella denticola GAI 5490 by agar dilution method in presence of 5% laked sheep blood
Clostridium perfringens [20] = test: Antimicrobial activity against Clostridium perfringens ATCC 13124 by agar dilution method in presence of 5% laked sheep blood
Clostridioides difficile [21] = test: Antimicrobial activity against Clostridium difficile by agar dilution method in presence of 5% laked sheep blood
[22] = system: Limosilactobacillus reuteri; test: Antimicrobial activity against Lactobacillus reuteri JCM 1112 by agar dilution method in presence of 5% laked sheep blood
Prevotella sp. = test: Antimicrobial activity against Prevotella sp. by agar dilution method in presence of 5% laked sheep blood
[23] = system: Paeniclostridium sordellii; test: Antimicrobial activity against Clostridium sordellii ATCC 9714 by agar dilution method in presence of 5% laked sheep blood; settings: Paraclostridium sordellii
[24] = system: Staphylococcus saccharolyticus; test: Antimicrobial activity against Staphylococcus saccharolyticus ATCC 14953 by agar dilution method in presence of 5% laked sheep blood
Bacteroides fragilis [25] = test: Antimicrobial activity against Bacteroides fragilis by agar dilution method in presence of 5% laked sheep blood
[26] = system: Fusobacterium necrophorum; test: Antimicrobial activity against Fusobacterium necrophorum by agar dilution method in presence of 5% laked sheep blood
[27] = system: Peptostreptococcus anaerobius; test: Antimicrobial activity against Peptostreptococcus anaerobius by agar dilution method in presence of 5% laked sheep blood
Atopobium parvulum = test: Antimicrobial activity against Atopobium parvulum VPI 0546 by agar dilution method in presence of 5% laked sheep blood; settings: Lancefieldella parvula
Prevotella intermedia = test: Antimicrobial activity against Prevotella intermedia by agar dilution method in presence of 5% laked sheep blood
Bifidobacterium breve = test: Antimicrobial activity against Bifidobacterium breve ATCC 15700 by agar dilution method in presence of 5% laked sheep blood

Cc1ncc([N+](=O)[O-])n1CCO [METRONIDAZOLE]
MIC (Cutibacterium acnes): > 128 µg/mL | MIC (Fusobacterium nucleatum): ≤ 0.015 µg/mL | MIC50 (Fusobacterium sp.): ≤ 0.015 µg/mL | MIC90 (Fusobacterium sp.): 0.5 µg/mL | MIC50 [1]: 0.125 µg/mL | MIC90 [1]: 0.25 µg/mL | MIC (Bacteroides ovatus): 2 µg/mL | MIC50 [2]: 1 µg/mL | MIC90 [2]: 2 µg/mL | MIC50 (Bacteroides stercoris): 0.5 µg/mL | MIC90 (Bacteroides stercoris): 1 µg/mL | MIC50 (Clostridium perfringens [3]): 1 µg/mL | MIC90 (Clostridium perfringens [3]): 2 µg/mL | MIC (Bacteroides fragilis [4]): 1 µg/mL | MIC50 (Phocaeicola vulgatus): 0.5 µg/mL | MIC90 (Phocaeicola vulgatus): 1 µg/mL | MIC (Campylobacter gracilis): 0.5 µg/mL | MIC50 (Odoribacter splanchnicus): 0.5 µg/mL | MIC90 (Odoribacter splanchnicus): 1 µg/mL | MIC50 (Eubacterium limosum): 0.5 µg/mL | MIC90 (Eubacterium limosum): 0.5 µg/mL | MIC (Bacteroides uniformis [5]): 0.5 µg/mL | MIC [6]: 1 µg/mL | MIC [7]: 1 µg/mL | MIC50 (Parvimonas micra): 0.5 µg/mL | MIC90 (Parvimonas micra): 1 µg/mL | MIC50 (Bacteroides uniformis [8]): 0.5 µg/mL | MIC90 (Bacteroides uniformis [8]): 1 µg/mL | MIC (Clostridioides difficile [9]): 0.5 µg/mL | MIC [10]: 2 µg/mL | MIC50 (Eggerthella lenta [11]): 0.5 µg/mL | MIC90 (Eggerthella lenta [11]): 0.5 µg/mL | MIC [12]: 64 µg/mL | MIC [13]: > 128 µg/mL | MIC50 [14]: 0.5 µg/mL | MIC90 [14]: 1 µg/mL | MIC50 (Fusobacterium varium): ≤ 0.015 µg/mL | MIC90 (Fusobacterium varium): 0.5 µg/mL | MIC [15]: 1 µg/mL | MIC (Eggerthella lenta [16]): 0.5 µg/mL | MIC (Bacteroides fragilis [17]): 1 µg/mL | MIC [18]: > 128 µg/mL | MIC50 (Finegoldia magna): 0.5 µg/mL | MIC90 (Finegoldia magna): 1 µg/mL | MIC50 (Bacteroides caccae): 0.5 µg/mL | MIC90 (Bacteroides caccae): 1 µg/mL | MIC [19]: 0.125 µg/mL | MIC (Prevotella denticola): 0.25 µg/mL | MIC (Clostridium perfringens [20]): 1 µg/mL | MIC50 (Clostridioides difficile [21]): 1 µg/mL | MIC90 (Clostridioides difficile [21]): 1 µg/mL | MIC [22]: > 128 µg/mL | MIC50 (Prevotella sp.): 1 µg/mL | MIC90 (Prevotella sp.): 2 µg/mL | MIC [23]: 1 µg/mL | MIC [24]: > 128 µg/mL | MIC50 (Bacteroides fragilis [25]): 0.5 µg/mL | MIC90 (Bacteroides fragilis [25]): 1 µg/mL | MIC50 [26]: ≤ 0.015 µg/mL | MIC90 [26]: 0.5 µg/mL | MIC50 [27]: 0.125 µg/mL | MIC90 [27]: 0.5 µg/mL | MIC (Atopobium parvulum): 0.5 µg/mL | MIC50 (Prevotella intermedia): 0.5 µg/mL | MIC90 (Prevotella intermedia): 0.5 µg/mL | MIC (Bifidobacterium breve): 16 µg/mL

C[C@@H](O)[C@H]1C(=O)N2C(C(=O)O)=C(S[C@H]3C[C@@H](C(=O)N4CC[C@H](NC(=O)CNC(=N)N)C4)N(C)C3)[C@H](C)[C@H]12 [TOMOPENEM]
MIC (Cutibacterium acnes): 1 µg/mL | MIC (Fusobacterium nucleatum): 2 µg/mL | MIC50 (Fusobacterium sp.): ≤ 0.015 µg/mL | MIC90 (Fusobacterium sp.): 0.5 µg/mL | MIC50 [1]: 0.125 µg/mL | MIC90 [1]: 0.5 µg/mL | MIC (Bacteroides ovatus): 0.5 µg/mL | MIC50 [2]: ≤ 0.015 µg/mL | MIC90 [2]: 0.06 µg/mL | MIC50 (Bacteroides stercoris): 0.5 µg/mL | MIC90 (Bacteroides stercoris): 4 µg/mL | MIC50 (Clostridium perfringens [3]): ≤ 0.015 µg/mL | MIC90 (Clostridium perfringens [3]): 0.06 µg/mL | MIC (Bacteroides fragilis [4]): 0.25 µg/mL | MIC50 (Phocaeicola vulgatus): 0.5 µg/mL | MIC90 (Phocaeicola vulgatus): 4 µg/mL | MIC (Campylobacter gracilis): 0.06 µg/mL | MIC50 (Odoribacter splanchnicus): 0.5 µg/mL | MIC90 (Odoribacter splanchnicus): 4 µg/mL | MIC50 (Eubacterium limosum): 0.5 µg/mL | MIC90 (Eubacterium limosum): 0.5 µg/mL | MIC (Bacteroides uniformis [5]): 0.25 µg/mL | MIC [6]: 0.5 µg/mL | MIC [7]: 0.25 µg/mL | MIC50 (Parvimonas micra): 0.125 µg/mL | MIC90 (Parvimonas micra): 0.125 µg/mL | MIC50 (Bacteroides uniformis [8]): 0.5 µg/mL | MIC90 (Bacteroides uniformis [8]): 4 µg/mL | MIC (Clostridioides difficile [9]): 2 µg/mL | MIC [10]: 0.03 µg/mL | MIC50 (Eggerthella lenta [11]): 0.5 µg/mL | MIC90 (Eggerthella lenta [11]): 0.5 µg/mL | MIC [12]: 0.125 µg/mL | MIC [13]: 0.25 µg/mL | MIC50 [14]: 0.5 µg/mL | MIC90 [14]: 4 µg/mL | MIC50 (Fusobacterium varium): ≤ 0.015 µg/mL | MIC90 (Fusobacterium varium): 0.5 µg/mL | MIC [15]: 0.125 µg/mL | MIC (Eggerthella lenta [16]): 0.5 µg/mL | MIC (Bacteroides fragilis [17]): 4 µg/mL | MIC [18]: 0.06 µg/mL | MIC50 (Finegoldia magna): 0.06 µg/mL | MIC90 (Finegoldia magna): 0.125 µg/mL | MIC50 (Bacteroides caccae): 0.5 µg/mL | MIC90 (Bacteroides caccae): 4 µg/mL | MIC [19]: ≤ 0.015 µg/mL | MIC (Prevotella denticola): 0.06 µg/mL | MIC (Clostridium perfringens [20]): 0.03 µg/mL | MIC50 (Clostridioides difficile [21]): 1 µg/mL | MIC90 (Clostridioides difficile [21]): 2 µg/mL | MIC [22]: 0.125 µg/mL | MIC50 (Prevotella sp.): 0.125 µg/mL | MIC90 (Prevotella sp.): 0.5 µg/mL | MIC [23]: ≤ 0.015 µg/mL | MIC [24]: 0.06 µg/mL | MIC50 (Bacteroides fragilis [25]): 0.25 µg/mL | MIC90 (Bacteroides fragilis [25]): 1 µg/mL | MIC50 [26]: ≤ 0.015 µg/mL | MIC90 [26]: 0.5 µg/mL | MIC50 [27]: 0.5 µg/mL | MIC90 [27]: 4 µg/mL | MIC (Atopobium parvulum): 0.5 µg/mL | MIC50 (Prevotella intermedia): 0.06 µg/mL | MIC90 (Prevotella intermedia): 0.125 µg/mL | MIC (Bifidobacterium breve): 1 µg/mL
